Measurements taken from US20190292243A1, “PEPTIDES AND METHODS OF USE THEREOF” (Fred Hutchinson Cancer Research Center, priority 2016, published 2019).
Like-named read-outs stand apart in the source and are kept apart here. Marks after values point to notes of the source that are not given here. Bridge positions count the residues as written; N and C are the ends. Peptide text beside a SMILES is read from it. * marks the point of attachment. Me2Gly = CN(C)CC(=O)*

Experiments:
[1] = Description: (§1) This example describes analysis of the pharmacokinetics of a peptide of the disclosure. A ^14C radiolabeled peptide of SEQ ID NO: 15 (SEQ ID NO: 15-r) was administered to 6-10 week old female Harlan athymic mice at a dose of 2 μCi/33 nmol via intravenous administration, intraperitoneal administration, oral administration or subcutaneous administration. At each time point, urine was collected by massaging the abdomen and mice were subsequently euthanized by CO2 asphyxiation. Blood was collected by cardiac exsanguination following cessation of respiratory movement. Plasma was separated by centrifugation and frozen until further analysis. Radioactivity in biological samples (plasma or urine) was detected by liquid scintillation counting on a Beckman Scintillation counter at a read time of 10 minutes. For HPLC evaluation, urine and plasma samples were diluted 20 μl in 80 μl and analyzed on an Agilent analytical HPLC equipped with an inline Raytest scintillation detector. Pharmacokinetics analysis was performed using the PKSolver 2 compartment IV or extravascular bolus.
SEQ ID NO: 15-r was spiked in as a positive control for intact peptide and Glycine was spiked in as a negative control for metabolized peptide. […] HPLC was used to separate peptide fragments and liquid scintillation counting was used to quantify the radioactive signal of intact peptides or peptide fragment. […] SEQ ID NO: 15-r was spiked in as a positive control for intact peptide and Glycine was spiked in as a negative control for metabolized peptide. […] SEQ ID NO: 15-r was spiked in as a positive control for intact peptide and Glycine was spiked in as a negative control for metabolized peptide. […] SEQ ID NO: 15-r was spiked in as a positive control for intact peptide and Glycine was spiked in as a negative control for metabolized peptide.

[2] = Pharmacokinetics of radiolabeled peptide in plasma by liquid scintillation counting (PKSolver 2 compartment); format: in vivo, female Harlan athymic nude mice; parameters: AUC0-inf (area under the curve): unit not given here; settings: 2 μCi/33 nmol
[3] = remark: listed apart in the source
Description: as §1
HPLC was used to separate peptide fragments and liquid scintillation counting was used to quantify the radioactive signal of intact peptides or peptide fragment. SEQ ID NO: 15-r was spiked in as a positive control for intact peptide and Glycine was spiked in as a negative control for metabolized peptide. […] SEQ ID NO: 15-r was spiked in as a positive control for intact peptide and Glycine was spiked in as a negative control for metabolized peptide. […] SEQ ID NO: 15-r was spiked in as a positive control for intact peptide and Glycine was spiked in as a negative control for metabolized peptide. […] SEQ ID NO: 15-r was spiked in as a positive control for intact peptide and Glycine was spiked in as a negative control for metabolized peptide.

[4] = IP, 3 hr, 0 = no intact peptide was measured

CC(C)C[C@@H]1NC(=O)[C@H]([C@@H](C)O)NC(=O)[C@@H]2CSSC[C@@H]3NC(=O)[C@H]([C@@H](C)O)NC(=O)[C@H](CC(N)=O)NC(=O)[C@H](CSSC[C@@H](C(=O)N4CCC[C@H]4C(=O)N[C@@H](CC(N)=O)C(=O)N[C@@H](CCC(N)=O)C(=O)O)NC(=O)[C@H](C)NC(=O)[C@H](CCCNC(=N)N)NC1=O)NC(=O)[C@H](CCCNC(=N)N)NC(=O)[C@H](CC(=O)O)NC(=O)[C@H](CCCNC(=N)N)NC(=O)[C@H](Cc1ccccc1)NC(=O)[C@H]([C@@H](C)O)NC(=O)[C@H](CCCNC(=N)N)NC(=O)CNC(=O)[C@@H]1CCCN1C(=O)[C@H](CCC(=O)O)NC(=O)[C@@H](NC(=O)[C@H](CO)NC(=O)[C@H](CO)NC(=O)CN(C)C)CSSC[C@H](NC(=O)[C@H](CCCNC(=N)N)NC3=O)C(=O)NCC(=O)N[C@@H](C)C(=O)N[C@@H](CC(=O)O)C(=O)NCC(=O)N[C@@H](CCCNC(=N)N)C(=O)N[C@@H](CO)C(=O)N[C@@H](C)C(=O)N[C@@H](C)C(=O)N2 [SEQ ID NO: 15-r] (Me2Gly-SSCEPGRTFRDRCNTCRCGADGRSAACTLRACPNQ-OH; disulfide 3-18, 13-32, 16-27 (inferred); N-terminus and C-terminus assumed)
percentage of AUC of intact peptide of the total radioactive signal (total AUC) in urine ([1]; IP, 5 min): 60%
percentage of AUC of intact peptide of the total radioactive signal (total AUC) in urine ([1]; IP, 30 min): 49%
percentage of AUC of intact peptide of the total radioactive signal (total AUC) in urine [1, 4]: 0%
percentage of AUC of intact peptide of the total radioactive signal (total AUC) in urine ([1]; IP, 24 hr, 0 = no intact peptide was measured): 0%
percentage of AUC of intact peptide of the total radioactive signal (total AUC) in urine ([1]; IP, 48 hr, 0 = no intact peptide was measured): 0%
percentage of AUC of intact peptide of the total radioactive signal (total AUC) in urine ([1]; IV, 5 min): 77%
percentage of AUC of intact peptide of the total radioactive signal (total AUC) in urine ([1]; IV, 30 min): 47%
percentage of AUC of intact peptide of the total radioactive signal (total AUC) in urine ([1]; IV, 1 hr): 43%
percentage of AUC of intact peptide of the total radioactive signal (total AUC) in urine ([1]; IV, 3 hr, 0 = no intact peptide was measured): 0%
percentage of AUC of intact peptide of the total radioactive signal (total AUC) in urine ([1]; IV, 8 hr, 0 = no intact peptide was measured): 0%
percentage of AUC of intact peptide of the total radioactive signal (total AUC) in urine ([1]; IV, 24 hr, 0 = no intact peptide was measured): 0%
percentage of AUC of intact peptide of the total radioactive signal (total AUC) in urine ([1]; PO, 3 hr, 0 = no intact peptide was measured): 0%
percentage of AUC of intact peptide of the total radioactive signal (total AUC) in urine ([1]; PO, 8 hr, 0 = no intact peptide was measured): 0%
percentage of AUC of intact peptide of the total radioactive signal (total AUC) in urine ([1]; PO, 48 hr, 0 = no intact peptide was measured): 0%
percentage of AUC of intact peptide of the total radioactive signal (total AUC) in urine ([1]; SC, 5 min, 0 = no intact peptide was measured): 0%
percentage of AUC of intact peptide of the total radioactive signal (total AUC) in urine ([1]; SC, 30 min, 0 = no intact peptide was measured): 0%
percentage of AUC of intact peptide of the total radioactive signal (total AUC) in urine ([1]; SC, 1 hr, 0 = no intact peptide was measured): 0%
percentage of AUC of intact peptide of the total radioactive signal (total AUC) in urine ([1]; SC, 8 hr, 0 = no intact peptide was measured): 0%
percentage of AUC of intact peptide of the total radioactive signal (total AUC) in urine ([1]; SC, 48 hr, 0 = no intact peptide was measured): 0%
time by which intact peptide in urine dropped to baseline ([1]; intraperitoneal injection): ≤ 3 h
time by which intact peptide signal in urine reached baseline ([1]; intravenous injection): ≤ 3 h
intact peptide observed in urine ([1]; oral administration): intact peptide was not observed in urine
intact peptide observed in urine ([1]; subcutaneous administration): intact peptide was not observed in urine
AUC0-inf (area under the curve) ([2]; IP): 25.59
CL/F (drug clearance over time) ([2]; IP): 1.28 nmol/(pmol/μl)/h
Cmax (peak drug concentration) ([2]; IP): 5.23 pmol/µL
AUC0-inf (area under the curve) ([2]; IV): 19.08
CL/F (drug clearance over time) ([2]; IV): 1.73 nmol/(pmol/μl)/h
Cmax (peak drug concentration) ([2]; IV): 33* pmol/μl
AUC0-inf (area under the curve) ([2]; Oral): 46
CL/F (drug clearance over time) ([2]; Oral): 0.53 nmol/(pmol/μl)/h
Cmax (peak drug concentration) ([2]; Oral): 0.59 pmol/µL
AUC0-inf (area under the curve) ([2]; SC): 171
CL/F (drug clearance over time) ([2]; SC): 0.144 nmol/(pmol/μl)/h
Cmax (peak drug concentration) ([2]; SC): 8.57 pmol/µL
percentage of AUC of intact peptide of the total radioactive signal (total AUC) in plasma ([3]; IP, 5 min): 94%
percentage of AUC of intact peptide of the total radioactive signal (total AUC) in plasma ([3]; IP, 30 min): 100%
percentage of AUC of intact peptide of the total radioactive signal (total AUC) in plasma ([3]; IP, 1 hr): 66%
percentage of AUC of intact peptide of the total radioactive signal (total AUC) in plasma [3, 4]: 0%
percentage of AUC of intact peptide of the total radioactive signal (total AUC) in plasma ([3]; IV, 5 min): 92%
percentage of AUC of intact peptide of the total radioactive signal (total AUC) in plasma ([3]; IV, 30 min): 100%
percentage of AUC of intact peptide of the total radioactive signal (total AUC) in plasma ([3]; PO, 8 hr): 45%
percentage of AUC of intact peptide of the total radioactive signal (total AUC) in plasma ([3]; SC, 5 min): 100%
percentage of AUC of intact peptide of the total radioactive signal (total AUC) in plasma ([3]; SC, 30 min): 88%
percentage of AUC of intact peptide of the total radioactive signal (total AUC) in plasma ([3]; SC, 1 hr): 50%
time by which intact peptide signal in plasma reached baseline ([3]; intraperitoneal injection): ≤ 3 h
time by which intact peptide signal in plasma reached baseline ([3]; intravenous injection): ≤ 3 h
intact peptide or breakdown products observed in plasma ([3]; oral administration): neither intact peptide or breakdown products of the peptide were observed in plasma
